The values below come from BindingDB's records for patent US20240059728 (Galecto Biotech, 2024).

For one test, the target named is Galectin-3 (Homo sapiens, UniProt P17931). The test can be described thus: Evaluation of Kd Values. How it is done: (§1) The affinity of Example 1-14 for galectins were determined by a fluorescence anisotropy assay where the compound was used as an inhibitor of the interaction between galectin and a fluorescein tagged saccharide probe as described S rme, P., Kahl-Knutsson, B., Huflejt, M., Nilsson, U. J., and Leffler H. (2004) Fluorescence polarization as an analytical tool to evaluate galectin-ligand interactions. Anal. Biochem. 334: 36-47, (Sarme et al., 2004) and Monovalent interactions of Galectin-1 By Salomonsson, Emma; Larumbe, Amaia; Tejler, Johan; Tullberg, Erik; Rydberg, Hanna; Sundin, Anders; Khabut, Areej; Frejd, Torbjorn; Lobsanov, Yuri D.; Rini, James M.; et al, From Biochemistry (2010), 49(44), 9518-9532, (Salomonsson et al., 2010).
Chain of Galectin-3 (P17931 whole entry): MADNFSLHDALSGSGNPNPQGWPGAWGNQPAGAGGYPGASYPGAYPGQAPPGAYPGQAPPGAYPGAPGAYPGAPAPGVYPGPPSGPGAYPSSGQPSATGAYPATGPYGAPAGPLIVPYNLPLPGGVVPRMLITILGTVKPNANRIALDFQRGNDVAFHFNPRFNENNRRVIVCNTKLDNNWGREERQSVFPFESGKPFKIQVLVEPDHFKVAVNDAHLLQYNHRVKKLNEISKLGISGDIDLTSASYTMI

For a further test, the target named is Galectin-1 (Homo sapiens, UniProt P09382). The test can be described thus: Evaluation of Kd Values. How it is done:
as §1

Some results are limits rather than exact numbers.

Chain of Galectin-1 (P09382 whole entry): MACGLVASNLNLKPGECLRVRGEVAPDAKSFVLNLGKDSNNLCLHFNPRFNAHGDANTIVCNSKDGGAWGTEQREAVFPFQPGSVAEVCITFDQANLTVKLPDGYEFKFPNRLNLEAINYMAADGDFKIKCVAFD

Turning to `OCC1O[C@@H](S[C@@H]2O[C@H](CO)C(O)C(n3cc(-c4cc(F)c(F)c(F)c4)cn3)[C@H]2O)C(O)[C@@H](n2cc(-c3cc(F)c(F)c(F)c3)cn2)[C@H]1O` (some centres undefined) [US20240059728, Example 5], the dissociation constant Kd (commonly the free concentration of one partner at which half of the binding sites on the other are occupied at equilibrium, for simple one-to-one binding) on Galectin-3 was 6 nM; on Galectin-1, 890 nM.

In the case of `OCC1O[C@@H](S[C@@H]2O[C@H](CO)C(O)C(n3cc(-c4cccc(F)c4)cn3)[C@H]2O)C(O)[C@@H](n2cc(-c3cccc(F)c3)cn2)[C@H]1O` (some centres undefined) [US20240059728, Example 4], the values for the Kd at Galectin-3 and on Galectin-1 were under 10 nM and 780 nM, respectively.
